Measured values taken from patent publication US20160158377A1, “BCL-XL Inhibitory Compounds and Antibody Drug Conjugates Including the Same” (AbbVie Inc., priority 2014, published 2016).
Like-named read-outs stand apart in the source and are kept apart here.

Assays:
circulating platelets [1] = details: mouse, in vivo
circulating platelets [2] = experiment: Number of circulating platelets in mice after single intraperitoneal injection; details: for Time after injection at which thrombocytopenia was maximal: following injection of the compounds
Bcl-xL = Bcl-xL (Homo sapiens, UniProt Q07817); experiment: TR-FRET Bcl-xL binding assay (competition with probe F-Bak)
Experimental: For the assay, test compounds were serially diluted in DMSO starting at 50 μM (2× starting concentration; 10% DMSO) and 10 μL transferred into a 384-well plate. 10 μL of a protein/probe/antibody mix was then added to each well at final concentrations listed below:
The samples were then mixed on a shaker for 1 minute and incubated for an additional 2 hours at room temperature. For each assay plate, a probe/antibody and protein/antibody/probe mixture were included as a negative and a positive control, respectively. Fluorescence was measured on the Envision (Perkin Elmer) using a 340/35 nm excitation filter and 520/525 (F-Bak) and 495/510 nm (Tb-labeled anti-his antibody) emission filters. Dissociation constants (Ki) were determined using Wang's equation (Wang, 1995, FEBS Lett. 360:111-114). The TR-FRET assay can be performed in the presence of varying concentrations of human serum (HS) or fetal bovine serum (FBS). Compounds were tested both without HS and in the presence of 1% HS.

[3] = tested on: Molt-4 human acute lymphoblastic leukemia cells; experiment: Molt-4 cell viability assay; assay type: cell-based; details: 10% human serum, 48 hours, CellTiter-Glo, read-out: Molt-4 Viability EC50 (nM, 10% HS)
Experimental: In one exemplary set of conditions, Molt-4 (ATCC, Manassas, Va.) human acute lymphoblastic leukemia cells were plated 12,500 cells per well in 384-well tissue culture plates (Corning, Corning, N.Y.) in a total volume of 25 μL tissue culture medium supplemented with 10% human serum (Sigma-Aldrich, St. Louis, Mo.) and treated with a 3-fold serial dilution of the compounds of interest from 10 μM to 0.0005 μM. Each concentration was tested in duplicate at least 3 separate times. The number of viable cells following 48 hours of compound treatment was determined using the CellTiter-Glo® Luminescent Cell Viability Assay according to the manufacturer's recommendations (Promega Corp., Madison, Wis.). Compounds were tested in the presence of 10% HS.

[4] = in the presence of 1% human serum (HS), read-out: Bcl-xL Binding Ki (nM, 1% HS)
[5] = without human serum, read-out: Bcl-xL Binding Ki

Sequence of Bcl-xL (Q07817 whole entry): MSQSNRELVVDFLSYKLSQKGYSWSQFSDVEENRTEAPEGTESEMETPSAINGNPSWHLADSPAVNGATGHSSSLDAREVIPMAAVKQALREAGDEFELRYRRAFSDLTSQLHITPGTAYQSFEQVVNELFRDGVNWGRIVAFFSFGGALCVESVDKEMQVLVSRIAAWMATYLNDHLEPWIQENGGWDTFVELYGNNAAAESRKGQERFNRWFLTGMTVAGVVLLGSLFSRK

Row | SMILES | Ki (Bcl-xL; [4]) [nM] | EC50 [3] [nM] | Ki (Bcl-xL; [5]) [nM] | other results
1 | CC1(C)CCC(c2ccc(Cl)cc2)=C(CN2CCN(c3ccc(C(=O)NS(=O)(=O)c4ccc(N[C@H](CCN5CCOCC5)CSc5ccccc5)c(S(=O)(=O)C(F)(F)F)c4)cc3)CC2)C1 [ABT-263, Navitoclax] |  |  |  | Time after injection at which thrombocytopenia was maximal (circulating platelets [1]): 6 h; Time to lowest count (circulating platelets [1]; 100 mg/kg): 6 h
2 | Cc1c(-c2ccc(N3CCc4cccc(C(=O)Nc5nc6ccccc6s5)c4C3)nc2C(=O)O)cnn1CC12CC3CC(CC(C3)C1)C2 [Compound A-1331852] |  |  |  | Time to lowest count (circulating platelets [2]; dose 25 mg/kg): 6 h; Time after injection at which thrombocytopenia was maximal (circulating platelets [2]): 6 h
3 | Cc1c(-c2ccc(N3CCc4cccc(C(=O)Nc5nc6ccccc6s5)c4C3)nc2C(=O)O)cnn1CC12CC3(C)CC(C)(C1)CC(OCCNC1CCN(S(C)(=O)=O)CC1)(C3)C2 [Compound W3.30, 6-[8-(1,3-benzothiazol-2-ylcarbamoyl)-3,4-dihydroisoquinolin-2(1H)-yl]-3-(1-{[3,5-dimethyl-7-(2-{[1-(methylsulfonyl)piperidin-4-yl]amino}ethoxy)tricyclo[3.3.1.1^3,7]dec-1-yl]methyl}-5-methyl-1H-pyrazol-4-yl)pyridine-2-carboxylic acid] | 0.891 | 16.3 | 0.011 | 
4 | Cc1c(-c2ccc(N3CCc4cccc(C(=O)Nc5nc6ccccc6s5)c4C3)nc2C(=O)O)cnn1CC12CC3(C)CC(C)(C1)CC(OCCNC1CN(S(C)(=O)=O)C1)(C3)C2 [Compound W3.31, 6-[8-(1,3-benzothiazol-2-ylcarbamoyl)-3,4-dihydroisoquinolin-2(1H)-yl]-3-(1-{[3,5-dimethyl-7-(2-{[1-(methylsulfonyl)azetidin-3-yl]amino}ethoxy)tricyclo[3.3.1.1^3,7]dec-1-yl]methyl}-5-methyl-1H-pyrazol-4-yl)pyridine-2-carboxylic acid] | 0.684 | 14.4 | 0.012 | 
5 | Cc1c(-c2ccc(N3CCc4cccc(C(=O)Nc5nc6ccccc6s5)c4C3)nc2C(=O)O)cnn1CC12CC3(C)CC(C)(C1)CC(OCCNCCC(N)=O)(C3)C2 [Compound W3.32, 3-{1-[(3-{2-[(3-amino-3-oxopropyl)amino]ethoxy}-5,7-dimethyltricyclo[3.3.1.1^3,7]dec-1-yl)methyl]-5-methyl-1H-pyrazol-4-yl}-6-[8-(1,3-benzothiazol-2-ylcarbamoyl)-3,4-dihydroisoquinolin-2(1H)-yl]pyridine-2-carboxylic acid] | 0.365 | 108 | < 0.01 | 
6 | CNCCOC12CC3(C)CC(C)(CC(Cn4ncc(-c5ccc(-c6ccc7[nH]nc(C(=O)Nc8nc9ccccc9s8)c7c6)nc5C(=O)O)c4C)(C3)C1)C2 [Compound W3.33, 6-[3-(1,3-benzothiazol-2-ylcarbamoyl)-1H-indazol-5-yl]-3-[1-({3,5-dimethyl-7-[2-(methylamino)ethoxy]tricyclo[3.3.1.1^3,7]dec-1-yl}methyl)-5-methyl-1H-pyrazol-4-yl]pyridine-2-carboxylic acid] | 0.319 | 422 | 0.044 | 
7 | Cc1c(-c2ccc(-c3ccc4cccc(C(=O)Nc5nc6ccccc6s5)c4c3)nc2C(=O)O)cnn1CC12CC3(C)CC(C)(C1)CC(OCCNCCCO)(C3)C2 [Compound W3.37, 6-[8-(1,3-benzothiazol-2-ylcarbamoyl)naphthalen-2-yl]-3-{1-[(3-{2-[(3-hydroxypropyl)amino]ethoxy}-5,7-dimethyltricyclo[3.3.1.1^3,7]dec-1-yl)methyl]-5-methyl-1H-pyrazol-4-yl}pyridine-2-carboxylic acid] | 0.58 | 10.8 | 0.03 | 
8 | CNC(=O)CCNCCOC12CC3(C)CC(C)(CC(Cn4ncc(-c5ccc(N6CCc7cccc(C(=O)Nc8nc9ccccc9s8)c7C6)nc5C(=O)O)c4C)(C3)C1)C2 [Compound W3.39, 6-[8-(1,3-benzothiazol-2-ylcarbamoyl)-3,4-dihydroisoquinolin-2(1H)-yl]-3-(1-{[3,5-dimethyl-7-(2-{[3-(methylamino)-3-oxopropyl]amino}ethoxy)tricyclo[3.3.1.1^3,7]dec-1-yl]methyl}-5-methyl-1H-pyrazol-4-yl)pyridine-2-carboxylic acid] | 0.44 | 37.7 | 0.015 | 
9 | CNCCOC12CC3(C)CC(C)(CC(Cn4ncc(-c5ccc(N6CCc7cccc(C(=O)Nc8nc9ccccc9s8)c7C6)nc5C(=O)O)c4C)(C3)C1)C2 [Example 2.32.24, 6-[8-(1,3-benzothiazol-2-ylcarbamoyl)-3,4-dihydroisoquinolin-2(1H)-yl]-3-[1-({3,5-dimethyl-7-[2-(methylamino)ethoxy]tricyclo[3.3.1.1^3,7]dec-1-yl}methyl)-5-methyl-1H-pyrazol-4-yl]pyridine-2-carboxylic acid] |  |  |  | Platelet number after dosing (circulating platelets [2]; dose 0.61 mg/kg): 6*10^3 /mm^3; Time to lowest count (circulating platelets [2]; dose 0.61 mg/kg): 6 h; Decrease of the platelet number (circulating platelets [2]; dose 0.61 mg/kg, from normal count of approximately 6*10^5/mm^3): 100 fold; Time after injection at which thrombocytopenia was maximal (circulating platelets [2]): 6 h

Continued, in another order:

Row | Ki (Bcl-xL; [4]) [nM] | EC50 [3] [nM] | Ki (Bcl-xL; [5]) [nM] | SMILES | other results
10 | 0.12 | 3.95 |  | CNCCOC12CC3(C)CC(C)(CC(Cn4ncc(-c5ccc(-c6cc7cccc(C(=O)Nc8nc9ccccc9s8)c7[nH]6)nc5C(=O)O)c4C)(C3)C1)C2 [Compound W3.27, 6-[7-(1,3-benzothiazol-2-ylcarbamoyl)-1H-indol-2-yl]-3-[1-({3,5-dimethyl-7-[2-(methylamino)ethoxy]tricyclo[3.3.1.1^3,7]dec-1-yl}methyl)-5-methyl-1H-pyrazol-4-yl]pyridine-2-carboxylic acid] | 
11 | 0.17 | 8.38 | < 0.01 | Cc1c(-c2ccc(-c3cc4cccc(C(=O)Nc5nc6ccccc6s5)c4[nH]3)nc2C(=O)O)cnn1CC12CC3(C)CC(C)(C1)CC(OCCN)(C3)C2 [Compound W3.28, 3-(1-{[3-(2-aminoethoxy)-5,7-dimethyltricyclo[3.3.1.1^3,7]dec-1-yl]methyl}-5-methyl-1H-pyrazol-4-yl)-6-[7-(1,3-benzothiazol-2-ylcarbamoyl)-1H-indol-2-yl]pyridine-2-carboxylic acid] | 
12 | 0.09 | 185 | < 0.01 | CNCCOC12CC3(C)CC(C)(CC(Cn4ncc(-c5ccc(-c6[nH]c7c(C(=O)Nc8nc9ccccc9s8)cccc7c6C)nc5C(=O)O)c4C)(C3)C1)C2 [Compound W3.29, 6-[7-(1,3-benzothiazol-2-ylcarbamoyl)-3-methyl-1H-indol-2-yl]-3-[1-({3,5-dimethyl-7-[2-(methylamino)ethoxy]tricyclo[3.3.1.1^3,7]dec-1-yl}methyl)-5-methyl-1H-pyrazol-4-yl]pyridine-2-carboxylic acid] | 
13 | 0.27 | 187 | 0.041 | CNCCOC12CC3(C)CC(C)(CC(Cn4ncc(-c5ccc(-c6ccc7[nH]cc(C(=O)Nc8nc9ccccc9s8)c7c6)nc5C(=O)O)c4C)(C3)C1)C2 [Compound W3.34, 6-[3-(1,3-benzothiazol-2-ylcarbamoyl)-1H-indol-5-yl]-3-[1-({3,5-dimethyl-7-[2-(methylamino)ethoxy]tricyclo[3.3.1.1^3,7]dec-1-yl}methyl)-5-methyl-1H-pyrazol-4-yl]pyridine-2-carboxylic acid] | 
14 | 0.16 | 658 | 0.022 | CNCCOC12CC3(C)CC(C)(CC(Cn4ncc(-c5ccc(-c6cnc7[nH]cc(C(=O)Nc8nc9ccccc9s8)c7c6)nc5C(=O)O)c4C)(C3)C1)C2 [Compound W3.35, 6-[3-(1,3-benzothiazol-2-ylcarbamoyl)-1H-pyrrolo[2,3-b]pyridin-5-yl]-3-[1-({3,5-dimethyl-7-[2-(methylamino)ethoxy]tricyclo[3.3.1.1^3,7]dec-1-yl}methyl)-5-methyl-1H-pyrazol-4-yl]pyridine-2-carboxylic acid] | 
